Measured values taken from patent US20110301194A1, “Method for Determining Treatment Efficacy” (ArQule, Inc., priority 2010, published 2011).

Tested on: various cancers
Experiment: Anti-proliferative effect of combinations, in vitro and in vivo
Source text: These cancers include, but are not limited to, lung cancer, small cell lung cancer, non-small cell lung cancer, colon cancer, breast cancer, pancreatic cancer, prostate cancer, renal cancer, cervical cancer, brain cancer, gastric/stomach cancer, uterine cancer, intestinal cancer, hepatic cancer, chronic myelogenous leukemia, melanoma, ovarian cancer, translocation-associated renal cell carcinoma (RCC), alveolar soft part sarcoma (ASPS), clear cell sarcoma (CCS), and hepatocellular carcinoma. The anti-proliferative effects of these combinational treatments are increased/enhanced in cell proliferative disorders and cancers in which the effected cells constitutively express or over-express c-Met. In addition, synergistic anti-proliferative effects are shown by (−)-trans-3-(5,6-dihydro-4H-pyrrolo[3,2,1-ij]quinolin-1-yl)-4-(1H-indol-3-yl) pyrrolidine-2,5-dione in combination with sorafenib in breast cancer, cervical cancer, lung cancer, small cell lung cancer, non-small cell lung cancer, melanoma, colon cancer, pancreatic cancer, renal cancer and gastric/stomach cancer; by (−)-trans-3-(5,6-dihydro-4H-pyrrolo[3,2,1-ij]quinolin-1-yl)-4-(1H-indol-3-yl)pyrrolidine-2,5-dione in combination with sunitinib in gastric/stomach cancer; by (−)-trans-3-(5,6-dihydro-4H-pyrrolo[3,2,1-ij]quinolin-1-yl)-4-(1H-indol-3-yl)pyrrolidine-2,5-dione in combination with erlotinib in lung cancer, small cell lung cancer, non-small cell lung cancer and colon cancer; and by (−)-trans-3-(5,6-dihydro-4H-pyrrolo[3,2,1-ij]quinolin-1-yl)-4-(1H-indol-3-yl)pyrrolidine-2,5-dione in combination with cisplatin in pancreatic cancer.

For O=C1NC(=O)[C@@H](c2cn3c4c(cccc24)CCC3)[C@@H]1c1c[nH]c2ccccc12 [Agent A, (−)-trans-3-(5,6-dihydro-4H-pyrrolo[3,2,1-ij]quinolin-1-yl)-4-(1H-indol-3-yl)pyrrolidine-2,5-dione], the “anti-proliferative effects in combination with sorafenib” value (breast, cervical, lung, small cell lung, non-small cell lung cancer, melanoma, colon, pancreatic, renal and gastric/stomach cancer) was “synergistic”, the “anti-proliferative effects in combination with sunitinib” value (gastric/stomach cancer) was “synergistic” and the “anti-proliferative effect in combination” value (in combination with sorafenib, sunitinib, erlotinib, gefitinib, cisplatin, carboplatin or capecitabine, various cancers, in vitro and in vivo) was “at least an additive”. The “anti-proliferative effects in combination with erlotinib” value (lung, small cell lung, non-small cell lung and colon cancer) was “synergistic” and the “anti-proliferative effects in combination with cisplatin” value (pancreatic cancer) was “synergistic”.
